≈ marks a conversion by molar mass, not a printed value. Structures can show the parent of a compound that is named as a salt. A value given as a limit tells only on which side of the number the result lay.

Here are results for four compounds from US9284325B2, “Spectinamides as anti-tuberculosis agents” (UNIVERSITY OF TENNESSEE RESEARCH FOUNDATION, priority 2009, dated 2016).

In assay [1] the test system is E. faecalis ATCC 33186. The experiment in a line: MIC determination by microbroth dilution. In kind it is cell-based, Enterococcus faecalis. The following applies: Enterococcus faecalis, ATCC33186. For orientation: In broth dilution the organism is exposed to a series of concentrations in liquid medium.
In assay [2] the test system is E. coli K12 ΔtolC. Description: microbe, parasite or virus in culture. In kind it is cell-based. As to conditions: Escherichia coli, read-out: MIC E. coli K12 ΔtolC.
In assay [3] the test system is Proteus vulgaris ATCC 33420. Description: MIC determination by microbroth dilution. In kind it is cell-based. The following applies: ATCC33420.
Assay [4] deals with Klebsiella pneumoniae ATCC 33495. Description: MIC determination by microbroth dilution. As to conditions: ATCC33495. In kind it is cell-based.
The subject of assay [5] is S. aureus 8325 or strain ATCC 29213. The experiment in a line: MIC determination by microbroth dilution. In kind it is cell-based, Staphylococcus aureus. The following applies: Staphylococcus aureus, ATCC29213; S. aureus 8325 or strain ATCC 29213 (for 1471-1544).
Assay [6] relates to E. coli K12. The experiment in a line: MIC determination by microbroth dilution. In kind it is cell-based, Escherichia coli. As to conditions: Escherichia coli, K12.
The test system of assay [7] is Acinetobacter baumannii ATCC 19606. The experiment in a line: MIC determination by microbroth dilution. In kind it is cell-based. The following applies: ATCC19606.
Assay [8] deals with Strep. pneumoniae DAW27 or strain R6. The experiment in a line: MIC determination by microbroth dilution. In kind it is cell-based, Streptococcus pneumoniae. As to conditions: Streptococcus pneumoniae; Strep. pneumoniae DAW27 or strain R6 (for 1443-1544); read-out: MIC S. pneumoniae.
The test system of assay [9] is M. tuberculosis H37Rv. Description: MIC determination by microbroth dilution, anti-tuberculosis activity. In kind it is cell-based, Mycobacterium tuberculosis. As to conditions: Mycobacterium tuberculosis, H37RV, 168 h; read-out: MIC.
The subject of assay [10] is Proteus mirabilis ATCC 25933. The experiment in a line: MIC determination by microbroth dilution. In kind it is cell-based. As to conditions: ATCC25933.
Assay [11] concerns Strep. pyogenes ATCC 700294. The experiment in a line: MIC determination by microbroth dilution. In kind it is cell-based, Streptococcus pyogenes. The following applies: Streptococcus pyogenes, ATCC700294, read-out: MIC S. pyogenes.
In assay [12] the test system is P. aeruginosa PAO1. Description: MIC determination by microbroth dilution. In kind it is cell-based, Pseudomonas aeruginosa. The following applies: Pseudomonas aeruginosa.
Assay [13] deals with Burkholderia cepacia ATCC 25416. The experiment in a line: MIC determination by microbroth dilution. In kind it is cell-based. As to conditions: ATCC25416, read-out: MIC B. cepcia.
Assay [14] concerns B. anthracis Sterne 34F2. The experiment in a line: microbe, parasite or virus in culture. In kind it is cell-based, Bacillus anthracis. As to conditions: Bacillus anthracis, STERNE34F2, read-out: MIC B. anthracis 34F2.
In assay [15] the test system is Strenotrophomonas maltophilia ATCC 13637. Description: MIC determination by microbroth dilution. In kind it is cell-based.

With `CN[C@@H]1[C@H](O)[C@H](NC)C2O[C@]3(O)C(OC2[C@H]1O)O[C@H](C)C[C@H]3NC(=O)[C@H](C)N` (stereo partly drawn) [Compound 1467, 3′-Dihydro-3′-deoxy-4(R)-[2(S)-amino]propanoylamino spectinomycin Trihydrochloride], the MIC in assay [1] is over 200 µg/mL; in assay [2], 200 µg/mL; in assay [3] it was over 200 µg/mL; in assay [4], over 200 µg/mL; in assay [5] it was over 200 µg/mL; in assay [6] it was 200 µg/mL. For the same compound, the MIC is over 200 µg/mL in assay [7]; 50 µg/mL in assay [8]; 200 µg/mL in assay [9]; 200 µg/mL in assay [10]; 50 µg/mL in assay [11]; over 200 µg/mL in [12]. In addition, the MIC was over 200 µg/mL in assay [13], over 200 µg/mL in assay [14] and 100 µg/mL in assay [15].

In the case of `CN[C@@H]1[C@H](O)[C@H](NC)C2O[C@]3(O)C(OC2[C@H]1O)O[C@H](C)C[C@H]3NC(=O)c1cccc2cccnc12` (stereo partly drawn) [Compound 1536, 3′-Dihydro-3′-deoxy-4(R)-(quinoline-8-yl)carbonylamino spec-tinomycin trihydrobromide], the MIC in [1], in [2], in [3], in assay [4], in [5] and in assay [6] was over 200 µg/mL each time. Moreover, the MIC in [7] was over 200 µg/mL; in [8] it was 200 µg/mL; in assay [9], over 200 µg/mL; in assay [10], over 200 µg/mL; in assay [11], over 200 µg/mL; in assay [12] it was over 200 µg/mL. Moreover, the MIC in assay [13], in assay [14] and in assay [15] was over 200 µg/mL in each case.

With `CN[C@@H]1[C@H](O)[C@H](NC)C2O[C@]3(O)C(OC2[C@H]1O)O[C@H](C)C[C@H]3NC(=O)Cc1nccs1` (stereo partly drawn) [Compound 1489, 3′-Dihydro-3′-deoxy-4(R)-(thiazol-2-yl)acetylamino spectinomycin tetradrobromide], the MIC in assay [1] is 100 µg/mL (≈ 218 µM); in assay [2], 50 µg/mL (≈ 109 µM); in [3], over 200 µg/mL; in assay [4], over 200 µg/mL; in assay [5], 100 µg/mL (≈ 218 µM); in [6], 200 µg/mL (≈ 436 µM). In addition, the MIC is over 200 µg/mL in [7]; 12.5 µg/mL (≈ 27.3 µM) in [8]; 6.25 µg/mL (≈ 13.6 µM) in [9]; over 200 µg/mL in assay [10]; 12.5 µg/mL (≈ 27.3 µM) in [11]; over 200 µg/mL in [12]. For the same compound, the MIC in assay [13], in assay [14] and in assay [15] was over 200 µg/mL throughout.

Turning to `CN[C@@H]1[C@H](O)[C@H](NC)C2O[C@]3(O)C(OC2[C@H]1O)O[C@H](C)C[C@H]3NC(=O)[C@@H](N)Cc1ccccc1` (stereo partly drawn) [Compound 1515, 3′-Dihydro-3′-deoxy-4(R)-[2(S)-amino,3-phenyl]propanoylamino spectinomycin Trihydrochloride], the MIC was over 200 µg/mL in [1]; 12.5 µg/mL in [2]; 100 µg/mL in assay [3]; over 200 µg/mL in assay [4]; over 200 µg/mL in assay [5]; over 200 µg/mL in assay [6]. Also, the MIC in assay [7] was over 200 µg/mL; in assay [8], 6.25 µg/mL; in assay [9] it was 200 µg/mL; in assay [10], over 200 µg/mL; in assay [11], 12.5 µg/mL; in [12] it was over 200 µg/mL. For the same compound, the MIC in assay [13], in [14] and in assay [15] was over 200 µg/mL throughout.
